From patent US7928182B2, “Glycerol polycarbonate, organic compositions containing same and method for obtaining said compositions” (Condat S.A., priority 2004, dated 2011)

Tests used:
Format in all cases: physicochemical
[1] = Combustion heat (ASTM D240); settings: reference samples and control
Procedure: b) The combustion heat (kJ/g) was also measured according to standard ASTM D240. The combustion heat characterises the calorific energy released by a burning compound. The higher this value is, the better fuel a compound is and the more the “fire” is maintained by this factor, which is the temperature.

Density (densimeter) = settings: 25° C., glycerol carbonate alone; in g/cm3 (unit assumed)
[2] = Surface tension (ring tensiometer); settings: 25° C., glycerol carbonate alone; in mN/m (unit assumed)

Combustion heat [1]	Density (Density (densimeter))	Surface tension [2]	SMILES
26.4 kJ/g			CCO [Ethanol]
40.2 kJ/g			CCCCCCC [Heptane]
	1.386	53.81	O=C1OCC(CO)O1 (centres unmarked) [glycerol carbonate]

SMILES	Combustion heat [1]	Density (Density (densimeter))	Surface tension [2]
CO [Methanol]	19.6 kJ/g		
